What was measured:
Type in all cases: physicochemical
[1] = Disintegration time according to Japanese Pharmacopoeia; conditions: listed as B
Method: The disintegration time of each of six molded products was measured by the use of ion-exchanged water according to the disintegration time measuring method prescribed in the 13th revised Japanese Pharmacopoeia, and the average of measured values was calculated.

[2] = Average particle size (sieving, 50% cumulative weight); conditions: excipient powder; listed as B
Method: Five grams of trehalose was sifted through screens having screen openings of 500 μm, 300 μm and 250 μm, respectively, and then sifted with Air Jet Sieve by using screens having screen openings of 150 μm, 75 μm, 45 μm, 38 μm and 32 μm, respectively. The oversize particle weight percentage [%] was calculated for each screen, and the average particle size is expressed as a particle size corresponding to a cumulative weight percentage of 50%.

[3] = Proportion of particles of 75 μm or more (Air Jet Sieve); conditions: excipient powder; listed as B
Method: Five grams of trehalose was weighed onto a screen having a screen opening of 75 μm, and sifted with Air Jet Sieve (Model 200LS, mfd. by ALPINE) for 5 minutes, and the weight percentage of the weight of particles remaining on the screen based on the total weight of particles was calculated as the proportion of particles of 75 μm or more.

Apparent specific volume = conditions: excipient powder; listed as B
From the text: The whole of 10 g of trehalose powder was gently poured into a 100-ml measuring cylinder without making an impact (in this case, a cylinder having an outside diameter smaller than the inside diameter of the measuring cylinder was placed in the measuring cylinder, and it was slowly lifted after pouring the trehalose), and the apparent specific volume was expressed as a value obtained by dividing the read volume by the weight of the trehalose.

[4] = Tablet hardness (Schleuniger hardness meter); conditions: listed as B
[5] = Water content (Karl Fisher) of tablets before and after storage; conditions: tablets compressed at 500 kg/cm^2; 0 day; listed as B
Method: Determined as a value obtained by measuring about 0.1 g of trehalose and determining its water content by the Karl Fisher method.
One hundred grams of commercial “Trehaose” (available from Hayashibara Biochemical Laboratories, Inc.) was dissolved in water to a concentration of about 35 wt %, and the resulting solution was concentrated under reduced pressure with heating at 60° C. so as to have a concentration of about 75 wt %, and allowed to stand at room temperature to precipitate crystals, which were washed with 50 ml of water. Glucose was removed by carrying out the above purification procedure once or twice, to increase the trehalose purity. Trehalose A was obtained by carrying out the purification procedure twice to obtain crystals, drying the crystals, grinding the dried crystals with a bantam mill (number of revolutions 15,000 rpm, feed rate 5 kg/hr, and screen opening 2.0 mmφ), and then sifting the ground crystals through a […]. Trehalose B was obtained by carrying out the purification procedure once to obtain crystals, drying the crystals, grinding the dried crystals with a bantam mill (number of revolutions 10,000 rpm, feed rate 5 kg/hr, and screen opening 2.00 mmφ), and then sifting the ground crystals through a 350-μm screen. Trehalose C was obtained by carrying out the purification procedure once to obtain crystals, drying the crystals, grinding the dried crystals with a bantam mill (number of revolutions 8,000 rpm, feed rate 5 kg/hr, and screen opening 2.0 mmφ), and then sifting the ground crystals through a 350-μm screen. […] Each of trehaloses A to C was compressed into tablets at a compression pressure of 500 kg/cm^2, and the tablet hardness immediately after the compression and the tablet hardness after standing for 3 days in an atmosphere of 40° C. and 75% RH after the compression were compared.
“Trehaose” (available from Hayashibara Bioscience Laboratories Co., Ltd.) was purified once by the method described in Example 1 to obtain crystals, which were dried, ground with a bantam mill (number of revolutions 12,000 rpm, feed rate 5 kg/hr, and screen opening 2.0 mmφ) and then dried at 105° C. for 4 hours to obtain trehalose anhydrous crystals. These crystals were compressed into tablets at a compression pressure of 500 kg/cm^2, and the tablet hardnesses of the tablets were compared in the same manner as in Example 1.

[6] = Whiteness of powder (color analyzer); conditions: excipient powder; listed as B
Method: (§1) For powder of trehalose or a pharmaceutical composition containing trehalose, values of L, a and b were measured with a color analyzer (TC-1800MKII, mfd. by Tokyo Denshoku Co., Ltd.), and the whiteness of the trehalose or pharmaceutical composition was calculated by the following equation: […]

[7] = Colour change of molded product stored at 40° C. for 3 months; conditions: Example 9 process molded product in glass bottle
Method: This molded product and the rapidly disintegrable molded product obtained in Example 9 by using the trehalose B were placed in separate glass bottles, respectively, and stored at 40° C. for 3 months.

[8] = Change in whiteness of excipient mixed with drug at 40° C. and 75% RH (reactivity); conditions: listed as B
Method: as §1
One gram of each of the trehaloses obtained in Example 1 and 1 g of isoniazid were mixed and then allowed to stand in an atmosphere of 40° C. and 75% RH, and the change in whiteness of the trehalose was observed. On the other hand, 1 g of each of the trehaloses obtained in Example 1 and 1 g of aminophyline were mixed and then allowed to stand in an atmosphere of 40° C. and 75% RH, and the change in whiteness of the trehalose was observed.
One gram of 100-mesh lactose (available from De Melkindustrie Veghel bv) or 1 g of Mannit S (available from Tohwa Kasei Co., Ltd.) and 1 g of aminophyline were mixed and then allowed to stand in an atmosphere of 40° C. and 75% RH, and the change in whiteness of the lactose or Mannit S was observed.
As a starting material. […]

[9] = Angle of repose (Sugiwara's instrument); conditions: excipient powder; listed as B
From the text: Measured by means of a Sugiwara's instrument for measuring angle of repose (Yakuzaigaku 27, p. 260, 1965).

[10] = Example 10: as Example 9 but molded at 60 kg/cm^2

OC[C@H]1O[C@H](O[C@H]2O[C@H](CO)[C@@H](O)[C@H](O)[C@H]2O)[C@H](O)[C@@H](O)[C@@H]1O [Trehalose B, trehalose]
Disintegration time according to Japanese Pharmacopoeia ([1]; Example 8: molded product of trehalose only, 30 kg/cm^2): 12 s
Disintegration time according to Japanese Pharmacopoeia [1, 10]: 45 s
Disintegration time according to Japanese Pharmacopoeia ([1]; process of Example 9: 950 g excipient + 50 g phenylpropanolamine hydrochloride, 30 kg/cm^2): 14 s
Average particle size [2]: 72 μm
Proportion of particles of 75 μm or more [3]: 46%
Apparent specific volume (Apparent specific volume): 2.2 cm^3/g
Tablet hardness ([4]; Example 8: molded product of trehalose only, molded at 30 kg/cm^2, dried overnight at 40° C.): 6.6 kg
Tablet hardness [4, 10]: 9.4 kg
Tablet hardness ([4]; process of Example 9: 950 g excipient + 50 g phenylpropanolamine hydrochloride, molded at 30 kg/cm^2): 6.5 kg
Tablet hardness ([4]; tablets compressed at 500 kg/cm^2, 0 day (immediately after compression)): 2.5 kgf
Tablet hardness ([4]; tablets compressed at 500 kg/cm^2, 3 days at 40° C. and 75% RH): 2.4 kgf
Water content [5]: 9.8%
Whiteness [6]: 97%
Change in color of molded product [7]: somewhat yellowed
Whiteness ([8]; 1 g excipient + 1 g aminophyline, 0 day): 99%
Whiteness ([8]; 1 g excipient + 1 g aminophyline, 40° C. and 75% RH, 1 month): 97%
Whiteness ([8]; 1 g excipient + 1 g isoniazid, 0 day): 98%
Whiteness ([8]; 1 g excipient + 1 g isoniazid, 40° C. and 75% RH, 1 month): 96%
Angle of repose [9]: 42 °

— patent US20020042393A1, “Excipient” (priority 1998, published 2002)
